Where two headings read alike, the source gives them in different places.
How the values were obtained:
[1] = system: PSN1 cells; assay: cells; conditions: Homo sapiens, PSN1, 72 h, read-out: LC50
Procedure, shortened: (§1)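 Cells were seeded at 5000 per well, attached overnight in drug-free medium, then exposed for 72 hours to ten 2/5 serial dilutions (10 to 0.003 μg/mL, 1% final DMSO) in triplicate. Growth was measured by SRB staining against a time-zero plate, with NCI-algorithm four-parameter logistic fits.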

[2] = system: PC-3 tumors; conditions: 12-R 0.05 mg/kg
From the text: In this model, instead of male, female animals were used because PC-3 growth is not hormone dependant.

[3] = system: H82 tumors; assay: In vivo xenograft, human lung (SCLC) H82; conditions: iv Days 0, 7, 14, 12-R 0.05 mg/kg, Compound D 0.5 mg/kg
Method: (§2) Female athymic nu/nu mice (Harlan Laboratories Models, S. L. Barcelona, Spain or Envigo, Spain) were utilized for all experiments. Animal were housed in individually ventilated cages Sealsafe® Plus, Techniplast S.P.A.), up to ten per cage on a 12-hour light-dark cycle at 21-23° C. and 40-60% humidity. Mice were allowed free access to irradiated standard rodent diet (Tecklad 2914C) and sterilized water. Animals were acclimated for at least 5 days prior to tumor implantation with a tumor cell suspension.
H82 cells were grown as a suspension and maintained by addition of fresh medium, as the cell density increases, every 2 to 3 days. Every week, culture was reestablished by centrifugation of the suspension with subsequent resuspension in fresh medium at a concentration of 1×10^5 cell/ml. Animals were subcutaneously implanted (on the right flank using 26 G needle and a 1 cc syringe) at 4-6 weeks of age with 5×10^6 H82 cells, suspended in 0.05 mL of a solution consisting of 50% Matrigel® (Corning Incorporated Life Sciences) and 50% medium without serum or antibiotics.
(§3) Treatment tolerability was assessed by monitoring body weight evolution, clinical signs of systemic toxicity, as well as evidences of local damage in the injection site.
(§4) In xenograft studies with other cell lines: • Tumor volume was calculated using the equation (a·b^2)/2, where a: length (longest diameter) and b: width (shortest diameter) were measured in mm by using digital caliper (Fowler Sylvac, S235PAT).
(§5) Treatments producing >20% lethality and/or 20% net body weight loss were considered toxic.
(§6) Tables and figures summarize the data obtained from complete experimental groups, i.e. those groups keeping the initial number of animals, n=8-10.

[4] = system: H526 tumors; assay: In vivo xenograft, human lung (SCLC) H526; conditions: iv Days 0, 7, 14, 12-R 0.05 mg/kg, Compound D 0.5 mg/kg
[5] = system: A549 cells; assay: cells; conditions: Homo sapiens, A549, 72 h, read-out: LC50
Procedure, shortened: as §1

[6] = system: HT29 cells; assay: cells; conditions: Homo sapiens, HT-29, 72 h, read-out: LC50
Procedure, shortened: as §1

[7] = system: DU-145 tumors
Method: as §2
Culture cells were passaged every 3 to 5 days upon reaching confluence Each male athymic mice was subcutaneously implanted (on the right flank using a 26 G needle and a 1 cc syringe) at 4-6 weeks of age with 5×10^6 DU-145 cells suspended in 0.05 mL of a solution consisting of 50% Matrigel® Matrix (Corning Incorporated Life Sciences) and 50% medium without serum or antibiotics.
as §3, §4, §5, §6

[8] = Day 0, iv Days 0, 7 and 14, 12-S […]
[9] = Day 2, iv Days 0, 7 and 14, 12-S […]
[10] = Day 4, iv Days 0, 7 and 14, 12-S […]
[11] = Day 7, iv Days 0, 7 and 14, 12-S […]
[12] = Day 11, iv Days 0, 7 and 14, 12-S […]
[13] = Day 14, iv Days 0, 7 and 14, 12-S […]
[14] = Day 16, iv Days 0, 7 and 14, 12-S […]
[15] = Day 18, iv Days 0, 7 and 14, 12-S […]
[16] = Day 21, iv Days 0, 7 and 14, 12-S […]
[17] = Day 23, iv Days 0, 7 and 14, 12-S […]
[18] = Day 25, iv Days 0, 7 and 14, 12-S […]
[19] = Day 29, iv Days 0, 7 and 14, 12-S […]
[20] = Day 32, iv Days 0, 7 and 14, 12-S […]
[21] = Day 35, iv Days 0, 7 and 14, 12-S […]
[22] = Day 37, iv Days 0, 7 and 14, 12-S […]
[23] = Day 39, iv Days 0, 7 and 14, 12-S […]
[24] = Day 42, iv Days 0, 7 and 14, 12-S […]
[25] = Day 44, iv Days 0, 7 and 14, 12-S […]
[26] = Day 46, iv Days 0, 7 and 14, 12-S […]
[27] = Day 49, iv Days 0, 7 and 14, 12-S […]
[28] = Day 51, iv Days 0, 7 and 14, 12-S […]
[29] = Day 56, iv Days 0, 7 and 14, 12-S […]

COc1c(C)cc2c(c1O)[C@@H]1[C@@H]3[C@@H]4SC[C@]5(N[C@@H](CN)Cc6c5[nH]c5ccccc65)C(=O)OC[C@@H](c5c6c(c(C)c(OC(C)=O)c54)OCO6)N3[C@@H](O)[C@H](C2)N1C [Compound 12-R]
CC50 [1]: > 128 nM
Median Tumor Volume [2, 8]: 129.0 mm^3
Median Tumor Volume [2, 9]: 136.2 mm^3
Median Tumor Volume [2, 10]: 144.2 mm^3
Median Tumor Volume [2, 11]: 172.2 mm^3
Median Tumor Volume [2, 12]: 183.6 mm^3
Median Tumor Volume [2, 13]: 205.2 mm^3
Median Tumor Volume [2, 14]: 256.0 mm^3
Median Tumor Volume [2, 15]: 325.7 mm^3
Median Tumor Volume [2, 16]: 322.2 mm^3
Median Tumor Volume [2, 17]: 407.8 mm^3
Median Tumor Volume [2, 18]: 419.9 mm^3
Median Tumor Volume [2, 19]: 459.1 mm^3
Median Tumor Volume [2, 20]: 512.1 mm^3
Median Tumor Volume [2, 21]: 579.2 mm^3
Median Tumor Volume [2, 22]: 613.8 mm^3
Median Tumor Volume [2, 23]: 764.1 mm^3
Median Tumor Volume [2, 24]: 785.0 mm^3
Median Tumor Volume [2, 25]: 845.5 mm^3
Median Tumor Volume [2, 26]: 748.0 mm^3
Median Tumor Volume [2, 27]: 808.7 mm^3
Median Tumor Volume [2, 28]: 855.8 mm^3
Median Tumor Volume [2, 29]: 1125.2 mm^3
Median Tumor Volume ([3]; Table 33, Day 0.0): 170.50 mm^3
Median Tumor Volume ([3]; Table 33, Day 2.0): 381.40 mm^3
Median Tumor Volume ([3]; Table 33, Day 5.0): 793.20 mm^3
Median Tumor Volume ([3]; Table 33, Day 7.0): 1187.20 mm^3
Median Tumor Volume ([3]; Table 33, Day 9.0): 1699.30 mm^3
Median Tumor Volume ([3]; Table 33, Day 12.0): 2125.60 mm^3
Median Tumor Volume ([4]; Table 32, Day 0.0): 214.20 mm^3
Median Tumor Volume ([4]; Table 32, Day 2.0): 404.50 mm^3
Median Tumor Volume ([4]; Table 32, Day 4.0): 680.50 mm^3
Median Tumor Volume ([4]; Table 32, Day 7.0): 995.20 mm^3
Median Tumor Volume ([4]; Table 32, Day 9.0): 1290.50 mm^3
Median Tumor Volume ([4]; Table 32, Day 11.0): 1568.00 mm^3
Median Tumor Volume ([4]; Table 32, Day 14.0): 2025.00 mm^3

COc1c(C)cc2c(c1O)[C@@H]1[C@@H]3[C@@H]4SC[C@]5(N[C@H](CN)Cc6c5[nH]c5ccccc65)C(=O)OC[C@@H](c5c6c(c(C)c(OC(C)=O)c54)OCO6)N3[C@@H](O)[C@H](C2)N1C [Compound 12-S]
CC50 [5]: > 128 nM
CC50 [6]: > 128 nM
Median Tumor Volume [2, 8]: 128.0 mm^3
Median Tumor Volume [2, 9]: 141.5 mm^3
Median Tumor Volume [2, 10]: 143.7 mm^3
Median Tumor Volume [2, 11]: 183.9 mm^3
Median Tumor Volume [2, 12]: 208.1 mm^3
Median Tumor Volume [2, 13]: 270.7 mm^3
Median Tumor Volume [2, 14]: 286.3 mm^3
Median Tumor Volume [2, 15]: 336.1 mm^3
Median Tumor Volume [2, 16]: 357.1 mm^3
Median Tumor Volume [2, 17]: 400.8 mm^3
Median Tumor Volume [2, 18]: 443.6 mm^3
Median Tumor Volume [2, 19]: 523.4 mm^3
Median Tumor Volume [2, 20]: 652.6 mm^3
Median Tumor Volume [2, 21]: 689.7 mm^3
Median Tumor Volume [2, 22]: 692.2 mm^3
Median Tumor Volume [2, 23]: 726.9 mm^3
Median Tumor Volume [2, 24]: 823.7 mm^3
Median Tumor Volume [2, 25]: 864.2 mm^3
Median Tumor Volume [2, 26]: 1182.8 mm^3
Median Tumor Volume [2, 27]: 1219.2 mm^3
Median Tumor Volume [2, 28]: 1331.9 mm^3
Median Tumor Volume [2, 29]: 1335.2 mm^3

COc1c(C)cc2c(c1O)[C@@H]1[C@@H]3[C@@H]4SC[C@]5(N[C@H](CO)Cc6c5oc5ccccc65)C(=O)OC[C@@H](c5c6c(c(C)c(OC(C)=O)c54)OCO6)N3[C@@H](O)[C@H](C2)N1C [Compound 39-S]
CC50 [6]: > 127 nM
Median Tumor Volume ([7]; Day 0, 39-S 1.00 mg/Kg iv Days 0, 7 and 14): 179.9 mm^3
Median Tumor Volume ([7]; Day 2, 39-S 1.00 mg/Kg iv Days 0, 7 and 14): 199.9 mm^3
Median Tumor Volume ([7]; Day 4, 39-S 1.00 mg/Kg iv Days 0, 7 and 14): 222.2 mm^3
Median Tumor Volume ([7]; Day 7, 39-S 1.00 mg/Kg iv Days 0, 7 and 14): 340.5 mm^3
Median Tumor Volume ([7]; Day 9, 39-S 1.00 mg/Kg iv Days 0, 7 and 14): 354.1 mm^3
Median Tumor Volume ([7]; Day 11, 39-S 1.00 mg/Kg iv Days 0, 7 and 14): 349.7 mm^3
Median Tumor Volume ([7]; Day 14, 39-S 1.00 mg/Kg iv Days 0, 7 and 14): 429.1 mm^3
Median Tumor Volume ([7]; Day 16, 39-S 1.00 mg/Kg iv Days 0, 7 and 14): 454.8 mm^3
Median Tumor Volume ([7]; Day 18, 39-S 1.00 mg/Kg iv Days 0, 7 and 14): 449.7 mm^3
Median Tumor Volume ([7]; Day 21, 39-S 1.00 mg/Kg iv Days 0, 7 and 14): 517.5 mm^3
Median Tumor Volume ([7]; Day 23, 39-S 1.00 mg/Kg iv Days 0, 7 and 14): 568.5 mm^3
Median Tumor Volume ([7]; Day 25, 39-S 1.00 mg/Kg iv Days 0, 7 and 14): 629.4 mm^3
Median Tumor Volume ([7]; Day 28, 39-S 1.00 mg/Kg iv Days 0, 7 and 14): 775.7 mm^3

Reference: patent US10538535B2, “Antitumoral compounds” (priority 2017, dated 2020)
